Experimental data as given in patent US9751861B2, “N1-(3,3,3-trifluoro-2-hydroxo-2-methylpropionyl)-piperidine derivatives as inhibitors of pyruvate dehydrogenase kinase” (MERCK PATENT GMBH, priority 2013, dated 2017).

How the values were obtained:
PDHK2 = biological target: T1, PDHK2 (Homo sapiens, UniProt Q15119); assay: Biochemical activity testing of PDHK2: PDC inactivation assay; conditions: human rec PDHK2, PDC from porcine heart, ATP 5 μM; read-out: IC50 PDHK2 (enzyme assay)
T1 construct: purchased Carna Bioscience
Procedure, shortened: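 Human recombinant PDHK2 (137 nM final) preincubated 30 min at RT with porcine heart PDC (20 mU/ml) and compound in pH 7.0 phosphate buffer, then phosphorylated with 5 μM ATP for 30 min at 37 °C. Residual PDC activity read as NADH fluorescence increase (Ex 340/Em 450) over 45 min; inhibitor-free reaction as full value, 3 mM DCA as zero, IC50 derived.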

human PDHK2 (12-407) = biological target: T2, human PDHK2 (12-407) (Homo sapiens, UniProt Q15119); assay: Isothermal titration calorimetry (ITC) binding; conditions: 30° C., pH 7.5
T2 construct: The human PDHK2 (12-407) was produced in E. coli; His-tag (cleaved yes); made in house; host or cells: E. coli
Method: Isothermal Titration Calorimetry
ITC measurements were performed with a VP-ITC micro calorimeter (Microcal, LLC/GE Healthcare Bio-Sciences AB, Uppsala, Sweden). In general titrations were performed by titrating the protein (50 μM) to the test compound (5 μM) in 12 μl injections. All binding experiments were carried out at 30° C. In general the test compounds were diluted form DMSO stock solutions into the measurement buffer with a maximum final concentration of 1% DMSO. The measurement buffer was 20 mM HEPES, 135 mM KCl, 1 mM TCEP, 2 mM MgCl2, 15 mM NaH2PO4, pH 7.5. The human PDHK2 (12-407) was produced in E. coli as his-tagged protein and purified by affinity chromatography. The tag was removed by side specific proteolysis. Before titration the protein buffer was changed to the measurement buffer containing the same DMSO concentration as the test compound dilution. ITC data analysis was performed using Origin 7 calorimetry software from the same supplier. For most measurements a binding model of one binding site was assumed. According to the applied mathematical model it is possible to calculate the binding constant (KA), the observed binding enthalpy (ΔH^obs) as well as the stoichiometry (N) of the formed complex. Preceding analysis the raw data was corrected for the heats of dilution by extrapolating from the saturation value from the end of titration. In order to allow for direct comparison between the respective experimental series and protein preparations the protein concentration was corrected by referencing titrations to a well behaved standard inhibitor. The apparent stoichiometry values defined the fraction of binding competent protein and compensated for relative errors in protein concentration measurements. This corrected protein concentration was used to set up ITC experiment series with test compounds. Any deviations from ideal 1:1 stoichiometry observed here were attributed to errors in compound concentration. This nominal compound concentration was corrected as well to achieve 1:1 stoichiometry in the fit.

PDH-Elalpha (pSer300) = assay: Cellular immunofluorescence assay in HEK293T cells; format: cell-based; conditions: Homo sapiens, HEK-293T, 5 hours incubation, anti-PDH-E1alpha pSer300 immunofluorescence, read-out: IC50 (cell data)
Method: Cellular Assay for Determination of Compound Activities
Compound activities were determined in a cellular immunofluorescence assay. Human HEK293T cells were seeded into black 384-well plates with clear bottom and grown overnight.
Next day, test compounds were added to the wells and the plates incubated for 5 hours. Following this, cells were fixed with formaldehyde, permeabilised and blocked. The primary antibody, Anti-PDH-Elalpha (pSer300), AP1064 (Merck Millipore) was added and incubated overnight in the plate wells. Next, cells were washed and the seconday antibody, Alexa Fluor 488, goat anti-rabbit ab (A-11008, Invitrogen) was added together with Hoechst 33258 (H3569, Invitrogen) and incubated for 1 hour in the plate wells. Finally, cells were washed and the plates were measured on the laser scanning cytometer acumen hci (TTpLabtech).
The raw data were normalized against a pharmacological inhibitor control and dose response curves were generated by plotting the percent effect values using the software package Genedata screener (Genedata).

SMILES | IC50 (PDHK2) | Kd (human PDHK2 (12-407)) | IC50 (PDH-Elalpha (pSer300))
Cc1cc(-n2nccc2C2CCN(C(=O)[C@@](C)(O)C(F)(F)F)CC2)no1 [Compound A115, (R)-3,3,3-Trifluoro-2-hydroxy-2-methyl-1-{4-[2-(5-methyl-isoxazol-3-yl)-2H-pyrazol-3-yl]-piperidin-1-yl}-propan-1-one] | 300 to 3000 nM | < 300 nM | 3000 to 50000 nM
C[C@@](O)(C(=O)N1CCC(c2ccn(-c3ccc(C(F)(F)F)cn3)n2)CC1)C(F)(F)F [Compound A102, (R)-3,3,3-Trifluoro-2-hydroxy-2-methyl-1-{4-[1-(5-trifluoromethyl-pyridin-2-yl)-1 H-pyrazol-3-yl]-piperidin-1-yl}-propan-1-one] | 3000 to 50000 nM | 300 to 3000 nM | 3000 to 50000 nM
C[C@@](O)(C(=O)N1CCC(c2ccnn2-c2ccc(Cl)c(F)c2)CC1)C(F)(F)F [Compound A100, (R)-1-{4-[2-(4-Chloro-3-fluoro-phenyl)-2H-pyrazol-3-yl]-piperidin-1-yl}-3,3,3-trifluoro-2-hydroxy-2-methyl-propan-1-one] | 300 to 3000 nM | < 300 nM | 300 to 3000 nM
C[C@@](O)(C(=O)N1CCC(c2ccnn2-c2ccc(C#N)cc2)CC1)C(F)(F)F [Compound A9, 4-{5-[1-((R)-3,3,3-Trifluoro-2-hydroxy-2-methyl-propionyl)-piperidin-4-yl]-pyrazol-1-yl}-benzonitrile] | 300 to 3000 nM | < 300 nM | 300 to 3000 nM
C[C@@](O)(C(=O)N1CCC(c2ccnn2-c2ccc(OC(F)F)cc2)CC1)C(F)(F)F [Compound A96, (R)-1-[4-[2-[4-(Difluoromethoxy)phenyl]-2H-pyrazol-3-yl]-1-piperidyl]-3,3,3-trifluoro-2-hydroxy-2-methyl-propan-1-one] | 300 to 3000 nM | < 300 nM | 300 to 3000 nM
C[C@@](O)(C(=O)N1CCC(n2ccnc2-c2ccccc2)CC1)C(F)(F)F [Compound A61, (R)-3,3,3-Trifluoro-2-hydroxy-2-methyl-1-[4-(2-phenyl-imidazol-1-yl)-piperidin-1-yl]-propan-1-one] | < 300 nM | < 300 nM | 3000 to 50000 nM
C[C@@](O)(C(=O)N1CCC(c2ccnn2-c2cccc(Cl)c2)CC1)C(F)(F)F [Compound A12, (R)-1-{4-[2-(3-Chloro-phenyl)-2H-pyrazol-3-yl]-piperidin-1-yl}-3,3,3-trifluoro-2-hydroxy-2-methyl-propan-1-one] | 300 to 3000 nM | < 300 nM | 3000 to 50000 nM
C[C@@](O)(C(=O)N1CCC(c2ccnn2-c2ccc(F)cc2)CC1)C(F)(F)F [Compound A14, (R)-3,3,3-Trifluoro-1-{4-[2-(4-fluoro-phenyl)-2H-pyrazol-3-yl]-piperidin-1-yl}-2-hydroxy-2-methyl-propan-1-one] | < 300 nM | < 300 nM | 300 to 3000 nM
C[C@@H]1CN(C(=O)[C@@](C)(O)C(F)(F)F)CC[C@@H]1c1ccnn1-c1ccc(C#N)cc1 [Compound A111, 4-{5-[(3S,4S)-3-Methyl-1-((R)-3,3,3-trifluoro-2-hydroxy-2-methyl-propionyl)piperidin-4-yl]-pyrazol-1-yl}-benzonitrile] | < 300 nM | < 300 nM | < 300 nM
C[C@@](O)(C(=O)N1CCC(n2cncc2-c2ccc(Cl)cc2)CC1)C(F)(F)F [Compound A64, (2R)-1-[4-[5-(4-chlorophenyl)imidazol-1-yl]-1-piperidyl]-3,3,3-trifluoro-2-hydroxy-2-methyl-propan-1-one] | < 300 nM | < 300 nM | 300 to 3000 nM
C[C@@H]1CN(C(=O)[C@@](C)(O)C(F)(F)F)CC[C@@H]1c1ccnn1-c1ccccc1 [Compound A106, (R)-3,3,3-Trifluoro-2-hydroxy-2-methyl-1-[(3S,4S)-3-methyl-4-(2-phenyl-2H-pyrazol-3-yl)-piperidin-1-yl]-propan-1-one] | < 300 nM | < 300 nM | < 300 nM
COc1ccc(-n2nccc2[C@H]2CCN(C(=O)[C@@](C)(O)C(F)(F)F)C[C@H]2C)cc1 [Compound A110, (R)-3,3,3-Trifluoro-1-{(3S,4S)-4-[2-(4-methoxy-phenyl)-2H-pyrazol-3-yl]-3-methyl-piperidin-1-yl}-2-hydroxy-2-methyl-propan-1-one] | < 300 nM | < 300 nM | < 300 nM
C[C@@](O)(C(=O)N1CCC(n2c(-c3ccccc3F)n[nH]c2=O)CC1)C(F)(F)F [Compound A54, 5-(2-Fluoro-phenyl)-4-[1-((R)-3,3,3-trifluoro-2-hydroxy-2-methyl-propionyl)piperidin-4-yl]-2,4-dihydro-[1,2,4]triazol-3-one] | 300 to 3000 nM | 300 to 3000 nM | 3000 to 50000 nM

Second part, the compound after the results:

IC50 (PDHK2) | Kd (human PDHK2 (12-407)) | IC50 (PDH-Elalpha (pSer300)) | SMILES
< 300 nM | < 300 nM | 300 to 3000 nM | C[C@@](O)(C(=O)N1CCC(c2ccnn2-c2ncc(F)cc2F)CC1)C(F)(F)F [Compound A82, (R)-1-[4-[2-(3,5-Difluoro-2-pyridyl)-2H-pyrazol-3-yl]-1-piperidyl]-3,3,3-trifluoro-2-hydroxy-2-methyl-propan-1-one]
300 to 3000 nM | < 300 nM | 300 to 3000 nM | Cc1cccc(-n2nccc2C2CCN(C(=O)[C@@](C)(O)C(F)(F)F)CC2)c1 [Compound A6, (R)-3,3,3-Trifluoro-2-hydroxy-2-methyl-1-[4-(2-m-tolyl-2H-pyrazol-3-yl)-piperidin-1-yl]-propan-1-one]
300 to 3000 nM | < 300 nM | 3000 to 50000 nM | C[C@@](O)(C(=O)N1CCC(c2conc2-c2ccccc2)CC1)C(F)(F)F [Compound A128, (R)-3,3,3-Trifluoro-2-hydroxy-2-methyl-1-[4-(3-phenyl-isoxazol-4-yl)-piperidin-1-yl]-propan-1-one]
300 to 3000 nM | 300 to 3000 nM | 3000 to 50000 nM | C[C@@](O)(C(=O)N1CCC(n2cnnc2-c2ccccc2F)CC1)C(F)(F)F [Compound A55, (R)-3,3,3-Trifluoro-1-{4-[3-(2-fluoro-phenyl)-[1,2,4]triazol-4-yl]-piperidin-1-yl}-2-hydroxy-2-methyl-propan-1-one]
< 300 nM | < 300 nM | 300 to 3000 nM | C[C@@](O)(C(=O)N1CCC(c2ccnn2-c2ccccc2Cl)CC1)C(F)(F)F [Compound A11, (R)-1-{4-[2-(2-Chloro-phenyl)-2H-pyrazol-3-yl]-piperidin-1-yl}-3,3,3-trifluoro-2-hydroxy-2-methyl-propan-1-one]
< 300 nM | < 300 nM | 300 to 3000 nM | Cc1cc(C2CCN(C(=O)[C@@](C)(O)C(F)(F)F)CC2)n(-c2ccc(F)cc2)n1 [Compound A41, (R)-1-{4-[2-(4-Fluoro-phenyl)-5-methyl-2H-pyrazol-3-yl]-piperidin-1-yl}-3,3,3-trifluoro-2-hydroxy-2-methyl-propan-1-one]
300 to 3000 nM | < 300 nM | 300 to 3000 nM | COc1ccc(-n2cncc2C2CCN(C(=O)[C@@](C)(O)C(F)(F)F)CC2)cc1 [Compound A131, (R)-3,3,3-Trifluoro-2-hydroxy-1-{4-[3-(4-methoxy-phenyl)-3 H-imidazol-4-yl]-piperidin-1-yl}-2-methyl-propan-1-one]
< 300 nM | < 300 nM | 300 to 3000 nM | C[C@@](O)(C(=O)N1CCC(c2ccnn2-c2ccccc2F)CC1)C(F)(F)F [Compound A4, (R)-3,3,3-Trifluoro-1-{4-[2-(2-fluoro-phenyl)-2H-pyrazol-3-yl]-piperidin-1-yl}-2-hydroxy-2-methyl-propan-1-one]
300 to 3000 nM | < 300 nM | 3000 to 50000 nM | C[C@@](O)(C(=O)N1CCC(c2ccnn2[C@H]2CC[C@H](O)CC2)CC1)C(F)(F)F [Compound A94, (R)-3,3,3-Trifluoro-2-hydroxy-1-[4-[2-(4-hydroxycyclohexyl)-2H-pyrazol-3-yl]-1-piperidyl]-2-methyl-propan-1-one]
